Data: ChEMBL document CHEMBL1139028, “Seco-prolinenitrile inhibitors of dipeptidyl peptidase IV define minimal pharmacophore requirements at P1” (Bioorg Med Chem Lett, 2006)
Active and inactive are the calls of the source. No cut-off for these calls is given here.

biological target: Dipeptidyl peptidase 4 (Homo sapiens, UniProt P27487); assay: Inhibition of DPP4
Sequence (P27487 whole entry): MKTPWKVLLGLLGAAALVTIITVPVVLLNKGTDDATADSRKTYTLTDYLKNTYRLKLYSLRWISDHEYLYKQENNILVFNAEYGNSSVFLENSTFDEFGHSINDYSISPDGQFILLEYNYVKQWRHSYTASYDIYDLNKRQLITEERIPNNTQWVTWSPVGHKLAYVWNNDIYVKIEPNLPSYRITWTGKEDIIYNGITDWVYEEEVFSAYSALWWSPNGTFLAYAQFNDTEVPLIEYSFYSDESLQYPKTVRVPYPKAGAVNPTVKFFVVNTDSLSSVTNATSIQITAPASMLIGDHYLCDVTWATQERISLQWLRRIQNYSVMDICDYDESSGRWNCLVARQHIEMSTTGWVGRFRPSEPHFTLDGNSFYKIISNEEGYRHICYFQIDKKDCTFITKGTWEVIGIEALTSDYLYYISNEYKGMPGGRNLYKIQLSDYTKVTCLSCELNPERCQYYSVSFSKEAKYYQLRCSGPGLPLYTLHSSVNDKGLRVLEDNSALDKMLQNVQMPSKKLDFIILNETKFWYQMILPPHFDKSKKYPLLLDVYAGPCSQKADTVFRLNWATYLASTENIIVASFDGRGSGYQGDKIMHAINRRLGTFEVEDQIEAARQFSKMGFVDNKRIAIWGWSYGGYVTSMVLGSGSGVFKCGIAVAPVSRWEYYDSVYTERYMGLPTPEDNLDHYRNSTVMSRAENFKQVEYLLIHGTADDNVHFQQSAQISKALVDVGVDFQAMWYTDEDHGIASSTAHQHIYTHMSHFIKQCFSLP

SMILES	Ki [µM]
CC(C)(C#N)NC(=O)[C@@H](N)C(C)(C)C	> 10
N#CCN(Cc1ccccc1)C(=O)[C@@H](N)C12CC3CC(CC(C3)C1)C2	> 10

Results, then the compound that gave them:

Ki [µM]	SMILES
> 10	CC(C)(C#N)NC(=O)[C@@H](N)C12CC3CC(CC(C3)C1)C2
> 10	N#CCNC(=O)[C@@H](N)C12CC3CC(CC(C3)C1)C2
> 10	CCCCN(CC#N)C(=O)[C@@H](N)C(C)(C)C

tested on: Rattus norvegicus; assay: Antihyperglycemic activity in Zucker fa/fa rat by oral glucose tolerance test at 3 umol/kg, po; format: functional, organism-based

SMILES	Activity
CN(CC#N)C(=O)[C@@H](N)C12CC3CC(CC(O)(C3)C1)C2	Active
